Reference: PubChem BioAssay (NCI)
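Each compound was tested at five concentrations against cells in 96-well plates for 48 hours. The concentration for full growth arrest is given as TGI.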

What was measured:
Assay in all cases: DTP human tumour cell line panel, 48 h
IGROV1 ovarian = tested on: IGROV1 ovarian
MCF7 breast = tested on: MCF7 breast
MDA-MB-435 = tested on: MDA-MB-435
HOP-62 NSCLC = tested on: HOP-62 NSCLC
DU-145 prostate = tested on: DU-145 prostate
RPMI-8226 leukemia = tested on: RPMI-8226 leukemia
M14 melanoma = tested on: M14 melanoma
SF-268 CNS = tested on: SF-268 CNS
OVCAR-3 ovarian = tested on: OVCAR-3 ovarian
TK-10 renal = tested on: TK-10 renal
A498 renal = tested on: A498 renal
UACC-257 melanoma = tested on: UACC-257 melanoma
HOP-92 NSCLC = tested on: HOP-92 NSCLC
A549 NSCLC = tested on: A549 NSCLC
NCI-H522 lung = tested on: NCI-H522 lung
NCI/ADR-RES ovarian = tested on: NCI/ADR-RES ovarian
LOX IMVI melanoma = tested on: LOX IMVI melanoma
NCI-H23 lung = tested on: NCI-H23 lung
CAKI-1 renal = tested on: CAKI-1 renal
HCT-116 colon = tested on: HCT-116 colon
CCRF-CEM leukemia = tested on: CCRF-CEM leukemia
SF-539 CNS = tested on: SF-539 CNS
EKVX NSCLC = tested on: EKVX NSCLC
K-562 leukemia = tested on: K-562 leukemia
SK-MEL-5 melanoma = tested on: SK-MEL-5 melanoma
OVCAR-8 ovarian = tested on: OVCAR-8 ovarian
UACC-62 melanoma = tested on: UACC-62 melanoma
BT-549 breast = tested on: BT-549 breast
SW-620 colon = tested on: SW-620 colon
PC-3 prostate = tested on: PC-3 prostate
NCI-H226 lung = tested on: NCI-H226 lung
SNB-75 CNS = tested on: SNB-75 CNS
NCI-H460 lung = tested on: NCI-H460 lung
OVCAR-5 ovarian = tested on: OVCAR-5 ovarian
MOLT-4 leukemia = tested on: MOLT-4 leukemia
HS 578T breast = tested on: HS 578T breast
SK-MEL-28 melanoma = tested on: SK-MEL-28 melanoma
KM12 colon = tested on: KM12 colon
SNB-19 CNS = tested on: SNB-19 CNS
786-0 renal = tested on: 786-0 renal
SK-OV-3 ovarian = tested on: SK-OV-3 ovarian
MDA-MB-231 breast = tested on: MDA-MB-231 breast
T-47D breast = tested on: T-47D breast
HCT-15 colon = tested on: HCT-15 colon
ACHN renal = tested on: ACHN renal
SF-295 CNS = tested on: SF-295 CNS
MALME-3M melanoma = tested on: MALME-3M melanoma
HT29 colon = tested on: HT29 colon
OVCAR-4 ovarian = tested on: OVCAR-4 ovarian
COLO 205 colon = tested on: COLO 205 colon
SN12C renal = tested on: SN12C renal
U251 CNS = tested on: U251 CNS
HCC-2998 colon = tested on: HCC-2998 colon
HL-60(TB) leukemia = tested on: HL-60(TB) leukemia
SR leukemia = tested on: SR leukemia
MDA-N = tested on: MDA-N
UO-31 renal = tested on: UO-31 renal
RXF 393 renal = tested on: RXF 393 renal
SK-MEL-2 melanoma = tested on: SK-MEL-2 melanoma

Compound: O=C1C2=Nc3ccccc3C(O)N2c2ccccc21 (stereo not drawn)
- TGI (IGROV1 ovarian): > 100 µM
- TGI (MCF7 breast): > 100 µM
- TGI (MDA-MB-435): 6.29 µM
- TGI (HOP-62 NSCLC): > 100 µM
- TGI (DU-145 prostate): > 100 µM
- TGI (RPMI-8226 leukemia): > 100 µM
- TGI (M14 melanoma): > 100 µM
- TGI (SF-268 CNS): > 100 µM
- TGI (OVCAR-3 ovarian): 56.3 µM
- TGI (TK-10 renal): > 100 µM
- TGI (A498 renal): 90.9 µM
- TGI (UACC-257 melanoma): 16.5 µM
- TGI (HOP-92 NSCLC): > 100 µM
- TGI (A549 NSCLC): > 100 µM
- TGI (NCI-H522 lung): 32.6 µM
- TGI (NCI/ADR-RES ovarian): > 100 µM
- TGI (LOX IMVI melanoma): 13.1 µM
- TGI (NCI-H23 lung): 28.8 µM
- TGI (CAKI-1 renal): > 100 µM
- TGI (HCT-116 colon): > 100 µM
- TGI (CCRF-CEM leukemia): > 100 µM
- TGI (SF-539 CNS): > 100 µM
- TGI (EKVX NSCLC): > 100 µM
- TGI (K-562 leukemia): > 100 µM
- TGI (SK-MEL-5 melanoma): 3.76 µM
- TGI (OVCAR-8 ovarian): > 100 µM
- TGI (UACC-62 melanoma): 12.9 µM
- TGI (BT-549 breast): > 100 µM
- TGI (SW-620 colon): > 100 µM
- TGI (PC-3 prostate): > 100 µM
- TGI (NCI-H226 lung): 77.3 µM
- TGI (SNB-75 CNS): 90.4 µM
- TGI (NCI-H460 lung): > 100 µM
- TGI (OVCAR-5 ovarian): > 100 µM
- TGI (MOLT-4 leukemia): > 100 µM
- TGI (HS 578T breast): > 100 µM
- TGI (SK-MEL-28 melanoma): > 68.7 µM
- TGI (KM12 colon): > 100 µM
- TGI (SNB-19 CNS): > 100 µM
- TGI (786-0 renal): > 100 µM
- TGI (SK-OV-3 ovarian): > 100 µM
- TGI (MDA-MB-231 breast): > 100 µM
- TGI (T-47D breast): > 100 µM
- TGI (HCT-15 colon): > 100 µM
- TGI (ACHN renal): > 100 µM
- TGI (SF-295 CNS): > 100 µM
- TGI (MALME-3M melanoma): 29.8 µM
- TGI (HT29 colon): > 100 µM
- TGI (OVCAR-4 ovarian): > 100 µM
- TGI (COLO 205 colon): > 100 µM
- TGI (SN12C renal): > 100 µM
- TGI (U251 CNS): > 100 µM
- TGI (HCC-2998 colon): > 94.3 µM
- TGI (HL-60(TB) leukemia): 34.2 µM
- TGI (SR leukemia): > 100 µM
- TGI (MDA-N): 3.5 µM
- TGI (UO-31 renal): > 100 µM

Compound: Cc1nc2ccccc2c(=O)n1NC(=O)c1ccc([N+](=O)[O-])cc1
- TGI (IGROV1 ovarian): > 100 µM
- TGI (MCF7 breast): > 100 µM
- TGI (MDA-MB-435): > 100 µM
- TGI (HOP-62 NSCLC): > 100 µM
- TGI (DU-145 prostate): > 100 µM
- TGI (RPMI-8226 leukemia): > 100 µM
- TGI (M14 melanoma): > 100 µM
- TGI (SF-268 CNS): > 100 µM
- TGI (OVCAR-3 ovarian): > 100 µM
- TGI (TK-10 renal): > 100 µM
- TGI (A498 renal): > 100 µM
- TGI (UACC-257 melanoma): > 100 µM
- TGI (HOP-92 NSCLC): > 100 µM
- TGI (A549 NSCLC): > 100 µM
- TGI (NCI-H522 lung): > 100 µM
- TGI (LOX IMVI melanoma): > 100 µM
- TGI (NCI-H23 lung): > 100 µM
- TGI (HCT-116 colon): > 100 µM
- TGI (CCRF-CEM leukemia): > 100 µM
- TGI (SF-539 CNS): > 100 µM
- TGI (EKVX NSCLC): > 100 µM
- TGI (K-562 leukemia): > 100 µM
- TGI (SK-MEL-5 melanoma): > 100 µM
- TGI (RXF 393 renal): > 100 µM
- TGI (OVCAR-8 ovarian): > 100 µM
- TGI (UACC-62 melanoma): > 100 µM
- TGI (BT-549 breast): > 100 µM
- TGI (SW-620 colon): > 100 µM
- TGI (PC-3 prostate): > 100 µM
- TGI (NCI-H226 lung): > 100 µM
- TGI (SNB-75 CNS): > 100 µM
- TGI (NCI-H460 lung): > 100 µM
- TGI (OVCAR-5 ovarian): > 100 µM
- TGI (MOLT-4 leukemia): > 100 µM
- TGI (HS 578T breast): > 100 µM
- TGI (SK-MEL-28 melanoma): > 100 µM
- TGI (KM12 colon): > 100 µM
- TGI (SNB-19 CNS): > 100 µM
- TGI (786-0 renal): > 100 µM
- TGI (SK-OV-3 ovarian): > 100 µM
- TGI (MDA-MB-231 breast): > 100 µM
- TGI (T-47D breast): > 100 µM
- TGI (ACHN renal): > 100 µM
- TGI (SF-295 CNS): > 100 µM
- TGI (MALME-3M melanoma): > 100 µM
- TGI (HT29 colon): > 100 µM
- TGI (OVCAR-4 ovarian): > 100 µM
- TGI (COLO 205 colon): > 100 µM
- TGI (SN12C renal): > 100 µM
- TGI (U251 CNS): > 100 µM
- TGI (HCC-2998 colon): > 100 µM
- TGI (HL-60(TB) leukemia): > 100 µM
- TGI (SR leukemia): > 100 µM
- TGI (MDA-N): > 100 µM
- TGI (UO-31 renal): > 100 µM

Compound: CC1CCC(O)(C(C)(C(=O)O)c2ccccc2)CC1 (stereo not drawn)
- TGI (IGROV1 ovarian): > 100 µM
- TGI (MDA-MB-435): > 100 µM
- TGI (HOP-62 NSCLC): > 100 µM
- TGI (DU-145 prostate): > 100 µM
- TGI (M14 melanoma): > 100 µM
- TGI (SF-268 CNS): > 100 µM
- TGI (OVCAR-3 ovarian): > 100 µM
- TGI (TK-10 renal): > 100 µM
- TGI (A498 renal): > 100 µM
- TGI (UACC-257 melanoma): > 100 µM
- TGI (HOP-92 NSCLC): > 100 µM
- TGI (A549 NSCLC): > 100 µM
- TGI (NCI-H522 lung): > 100 µM
- TGI (NCI/ADR-RES ovarian): > 100 µM
- TGI (LOX IMVI melanoma): > 100 µM
- TGI (NCI-H23 lung): > 100 µM
- TGI (CAKI-1 renal): > 100 µM
- TGI (HCT-116 colon): > 100 µM
- TGI (CCRF-CEM leukemia): > 100 µM
- TGI (EKVX NSCLC): > 100 µM
- TGI (K-562 leukemia): > 100 µM
- TGI (SK-MEL-5 melanoma): > 100 µM
- TGI (RXF 393 renal): > 100 µM
- TGI (SK-MEL-2 melanoma): > 100 µM
- TGI (OVCAR-8 ovarian): > 100 µM
- TGI (UACC-62 melanoma): > 100 µM
- TGI (BT-549 breast): > 100 µM
- TGI (SW-620 colon): > 100 µM
- TGI (PC-3 prostate): > 100 µM
- TGI (NCI-H226 lung): > 100 µM
- TGI (NCI-H460 lung): > 100 µM
- TGI (OVCAR-5 ovarian): > 100 µM
- TGI (MOLT-4 leukemia): > 100 µM
- TGI (HS 578T breast): > 100 µM
- TGI (SK-MEL-28 melanoma): > 100 µM
- TGI (KM12 colon): > 100 µM
- TGI (SNB-19 CNS): > 100 µM
- TGI (786-0 renal): > 100 µM
- TGI (MDA-MB-231 breast): > 100 µM
- TGI (T-47D breast): > 100 µM
- TGI (HCT-15 colon): > 100 µM
- TGI (ACHN renal): > 100 µM
- TGI (SF-295 CNS): > 100 µM
- TGI (MALME-3M melanoma): > 100 µM
- TGI (HT29 colon): > 100 µM
- TGI (OVCAR-4 ovarian): > 100 µM
- TGI (SN12C renal): > 100 µM
- TGI (U251 CNS): > 100 µM
- TGI (HL-60(TB) leukemia): > 100 µM
- TGI (MDA-N): > 100 µM
- TGI (UO-31 renal): > 100 µM
